{"source": "patent US11583507B2", "about": "“Direct AMPK activator compounds” (SOCIETE DES PRODUITS NESTLE S.A., priority 2018, dated 2023)", "key": {"[1]": {"molecular_target": "T1, AMPK α2β1γ1 R298G (211 R298G) mutant (Homo sapiens, UniProt P54619+P54646+Q9Y478, R299G)", "T1 construct": "His; made in house; host or cells: bacteria", "T1 sequence (P54646 whole entry)": "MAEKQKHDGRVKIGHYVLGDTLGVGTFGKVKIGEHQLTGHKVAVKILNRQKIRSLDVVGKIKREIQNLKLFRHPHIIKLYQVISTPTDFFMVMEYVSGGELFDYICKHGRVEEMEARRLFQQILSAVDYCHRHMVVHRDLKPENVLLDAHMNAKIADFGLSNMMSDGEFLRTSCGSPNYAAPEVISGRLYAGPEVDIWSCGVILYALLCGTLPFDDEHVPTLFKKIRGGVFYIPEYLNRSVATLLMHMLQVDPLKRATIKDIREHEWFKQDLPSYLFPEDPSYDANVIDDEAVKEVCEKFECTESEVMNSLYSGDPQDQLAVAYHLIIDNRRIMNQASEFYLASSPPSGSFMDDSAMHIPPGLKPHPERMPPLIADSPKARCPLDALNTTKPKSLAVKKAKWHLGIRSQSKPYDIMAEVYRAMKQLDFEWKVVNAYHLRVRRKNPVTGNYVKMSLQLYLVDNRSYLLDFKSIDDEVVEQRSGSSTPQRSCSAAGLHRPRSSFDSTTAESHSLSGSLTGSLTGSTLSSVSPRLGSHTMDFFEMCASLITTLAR", "T1 sequence (Q9Y478 whole entry)": "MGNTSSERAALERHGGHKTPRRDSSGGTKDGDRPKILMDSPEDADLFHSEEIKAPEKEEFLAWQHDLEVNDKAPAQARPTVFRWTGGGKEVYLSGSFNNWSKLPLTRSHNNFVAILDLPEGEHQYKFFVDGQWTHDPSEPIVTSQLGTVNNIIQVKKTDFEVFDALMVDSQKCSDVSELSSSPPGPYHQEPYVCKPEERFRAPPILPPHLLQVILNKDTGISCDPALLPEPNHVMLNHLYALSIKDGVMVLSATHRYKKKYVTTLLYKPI", "T1 sequence (P54619 whole entry R299G)": "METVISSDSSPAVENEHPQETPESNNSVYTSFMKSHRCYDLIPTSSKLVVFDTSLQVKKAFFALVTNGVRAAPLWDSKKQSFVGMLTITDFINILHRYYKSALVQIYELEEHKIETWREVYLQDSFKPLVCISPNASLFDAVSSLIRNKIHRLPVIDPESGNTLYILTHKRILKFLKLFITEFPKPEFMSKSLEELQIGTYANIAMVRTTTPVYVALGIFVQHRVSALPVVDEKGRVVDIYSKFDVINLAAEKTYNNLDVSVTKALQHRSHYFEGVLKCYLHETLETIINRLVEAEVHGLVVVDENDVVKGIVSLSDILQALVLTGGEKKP", "test": "AMPK in vitro activity assay (HTRF-KinEASE), γ1 R298G mutant", "type": "biochemical", "conditions": "mutation in the γ1 AMP binding pocket", "experimental": "(§1) Lusianthridin (CAS 87530-30-1) was isolated from Thunia alba fruit. It was sourced from Analyticon (NP-012362). The plant was purchased through Analyticon's biomaterial supplier in 2003. The country of origin is Nepal. The AMPK heterotrimers were expressed in bacteria and purified through the His-α subunit by nickel purification. AMPK complexes were purified through gel filtration and phosphorylated by incubation with CaMKKβ, and further purified with a final gel filtration purification step. Phosphorylated purified AMPK was incubated with varying concentrations of ligand for 30 mins using substrate and reagents from the HTRF-KinEASE Cisbio assay kit (STK S1 Kit). Phosphorylation of the substrate was measured by incubating with donor and acceptor antibodies for 2 h at room temperature as per the manufacturer's protocol (and Coulerie et al., (2016) PMID: 27792327) and phosphorylated peptide detected by performing HTRF. The 665 nm/620 nm ratio was determined and the results are plotted as fold activation compared to the respective AMPK complex without any compound."}, "[2]": {"molecular_target": "T2, AMPKα2β1γ1 (211) (Homo sapiens, UniProt P54619+P54646+Q9Y478)", "T2 construct": "His; made in house; host or cells: bacteria", "test": "AMPK in vitro activity assay (HTRF-KinEASE), phosphorylated bacterially-expressed complex", "type": "biochemical", "conditions": "fold activation vs complex without compound; 30 mins incubation", "experimental": "as §1"}, "[3]": {"system": "AMPK substrate, acetyl-CoA carboxylase (ACC)", "test": "pACC HTRF assay in U2OS Flp-In T-REx cells", "type": "cell-based", "conditions": "1 h, varying concentrations, dose-dependent", "experimental": "U2OS Flp-In T-REx cells were seeded at 100 K in a 96-well plate and left overnight at 37 C in DMEM GlutaMAX (Thermo Fisher Scientific) supplemented with 10% (vol/vol) FBS and 100 U/ml penicillin G, and 100 μg/ml streptomycin. Cells were treated for 1 h with varying concentrations of Lusianthridin in media lacking FBS and then cells were lysed in 50 μl of Cisbio lysis buffer #1 supplemented with blocking solution as per the manufacturer's protocol (Cisbio). Cells were lysed for 30 mins at room temperature before 16 μl of lysate was incubated with 4 μl of the HTRF antibodies (1:40 dilution of the acceptor and donor (p)ACC antibodies, as per the manufacturers protocol). Lysates were incubated overnight with the antibodies before 665 nm/620 nm ratio was determined using a MolecularDevices i3 plate reader (with a HTRF cartridge add-on). For western blot analysis, SDS-sample buffer was added to the remainder of the lysate, denatured at 95 C and then subjected to western blot analysis with phospho-specific and total ACC antibodies (Cell Signalling). Bands were visualized by incubating with Li-Cor secondary antibody and scanned on a Li-Cor Odyssey machine."}, "[4]": {"molecular_target": "T3, AMPK α2β2γ1 (221) (Homo sapiens, UniProt O43741+P54619+P54646)", "T3 construct": "His; made in house; host or cells: bacteria", "test": "AMPK in vitro activity assay (HTRF-KinEASE), β2-containing complex", "type": "biochemical", "conditions": "fold activation vs complex without compound", "experimental": "as §1"}, "[5]": {"molecular_target": "T4, AMPKα1β1γ1 (111) (Homo sapiens, UniProt P54619+Q13131+Q9Y478)", "T4 construct": "His; made in house; host or cells: bacteria", "test": "AMPK in vitro activity assay (HTRF-KinEASE), α1-containing complex", "type": "biochemical", "conditions": "fold activation vs complex without compound", "experimental": "as §1"}, "[6]": {"system": "AMPK α2β1γ1 ΔCBM mutant (211 ΔCBM)", "test": "AMPK in vitro activity assay (HTRF-KinEASE), ΔCBM mutant", "type": "biochemical", "conditions": "carbohydrate-binding module deleted", "experimental": "as §1"}, "[7]": {"molecular_target": "T5, AMPK α2β1γ1 S108A mutant (211 S108A) (Homo sapiens, UniProt P54619+P54646+Q9Y478, S108A)", "T5 construct": "His; made in house; host or cells: bacteria", "T5 sequence (P54646 whole entry)": "as the sequence (P54646 whole entry) above", "T5 sequence (Q9Y478 whole entry S108A)": "as the sequence (Q9Y478 whole entry) above, with S108A counted along it", "T5 sequence (P54619 whole entry)": "as the sequence (P54619 whole entry R299G) above, with G299R counted along it", "test": "AMPK in vitro activity assay (HTRF-KinEASE), β1 S108A mutant", "type": "biochemical", "experimental": "as §1"}, "[8]": {"system": "primary hepatocytes", "test": "Lipogenesis ([1-14C]-acetate incorporation into fatty acids) in primary hepatocytes", "type": "cell-based, mouse", "conditions": "1 h at 37 C, varying concentrations", "experimental": "Hepatocyte isolation: The liver was first perfused with 50 ml perfusion buffer (Krebs-Hepes buffer with […] EDTA), followed with 50 ml collagenase A buffer (Krebs-Hepes buffer with 5 mM CaCl2 and 0.5 mg/ml collagenase). […] Hepatocytes were left to attach (3-4 h) and cultured overnight in M199 supplemented with antibiotics and 100 nM dexamethasone. Cells were used for experiments the following morning. For primary hepatocyte isolation see Example 4. For lipogenesis measurements in primary hepatocytes, cells were seeded at 600 K cells per well in a 6-well plate overnight. Media was replaced with fresh M199 media alone for 2 hours prior to incubation with varying concentrations of Lusianthridin for 1 h at 37 C, in the presence of [1-^14C]-acetate. The incorporation of [^14C] into fatty acids was determined in the lower organic layer after separation from the aqueous phase. […] Lipogenesis is controlled by the AMPK substrate ACC, and phosphorylation and inhibition of ACC by AMPK, leads to a decrease in lipogenesis. Lipogenesis was measured in primary hepatocytes by determining the incorporation of ^14C-labelled acetate into fatty acids. Lipogenesis was monitored in the presence or absence of varying concentrations of Lusianthridin for 1 h at 37 C. […] This observation is consistent with its ability to activate AMPK in hepatocytes, which leads to the phosphorylation and inhibition of ACC."}, "[9]": {"system": "differentiated C2C12 cells", "test": "Glucose uptake (3H-2-deoxyglucose) into differentiated C2C12 cells", "type": "cell-based", "conditions": "Lusianthridin 100 μM for 4 h at 37 C", "experimental": "C2C12 cells were maintained in DMEM GlutaMAX supplemented with 10% (vol/vol) FBS and 100 U/ml penicillin G, and 100 μg/ml streptomycin. C2C12 myoblasts were differentiated into myotubes by 7 days of culture in DMEM GlutaMAX supplemented with 2% (vol/vol) horse serum and antibiotics. Cells were transferred to serum-free media for 24 hours, before equilibrating with bicarbonate-free medium prior to treatment. Cells were treated with Control (DMSO 1% final concentration) or 100 μM Lusianthridin in the presence of ^3H-2-deoxyglucose (in Krebs-Hepes buffer containing sodium pyruvate). Cells were lysed and the quantity of ^3H determined in these samples using a scintillation counter.\nActivation of AMPK in muscle cells has been previously shown to increase glucose uptake. […] Differentiated C2C12 cells were treated with either control or 100 μM Lusianthridin for 4 h at 37 C. Glucose uptake was determined by monitoring the uptake of ^3H-2-deoxyglucose into cells. […] This is consistent with the important role of AMPK in mediating glucose uptake in muscle."}, "[10]": {"system": "mouse primary hepatocytes", "test": "MTT cytotoxicity assay in mouse primary hepatocytes", "conditions": "1 h at 37 C, Lusianthridin up to 100 μM", "procedure": "Mouse primary hepatocytes were treated with the indicated concentrations of Lusianthridin, Oligomycin and FCCP for 1 h at 37 C. Cell viability was determined by using an MTT assay as per the manufacturer's protocol.\nFor cytotoxicity experiments in primary hepatocytes, cells were seeded at 20 K cells per well in a 96-well plate overnight in M199 media. Hepatocytes were incubated with varying concentrations of Lusianthridin, Oligomycin or FCCP for 1 h at 37 C. The media was changed for media without phenol red, before performing an MTT assay as per the manufacturer's instructions (Thermo fisher, V131154)."}}}
{"smiles": "Nc1ncnc2c1ncn2[C@@H]1O[C@H](COP(=O)(O)O)[C@@H](O)[C@H]1O", "note": "[AMP, reference compound]", "values": [{"measurement": "activation of AMPK α2β1γ1 γ1 R298G mutant complexes", "setting": "[1]", "value": "impaired"}]}
{"smiles": "COc1cc(O)c2c(c1)CCc1cc(O)c(O)cc1-2", "note": "[Compound 2, 7-Methoxy-9,10-dihydrophenanthrene-2,3,5-triol]", "values": [{"measurement": "activation of bacterially-expressed AMPKα2β1γ1 complexes", "setting": "[2]", "value": "activate"}, {"measurement": "phosphorylation of the AMPK substrate ACC (pACC HTRF)", "setting": "[3]", "value": "increase"}]}
{"smiles": "Oc1ccc2c(c1)CCc1cccc(O)c1-2", "note": "[Compound 3, 9,10-Dihydrophenanthrene-2,5-diol]", "values": [{"measurement": "activation of bacterially-expressed AMPKα2β1γ1 complexes", "setting": "[2]", "value": "activate"}, {"measurement": "phosphorylation of the AMPK substrate ACC (pACC HTRF)", "setting": "[3]", "value": "increase"}]}
{"smiles": "Oc1ccc2c(c1)CCc1cc(O)cc(O)c1-2", "note": "[Compound 4, 9,10-Dihydrophenanthrene-2,4,7-triol]", "values": [{"measurement": "activation of bacterially-expressed AMPKα2β1γ1 complexes", "setting": "[2]", "value": "activate"}, {"measurement": "activation of β2-containing AMPK complexes (α2β2γ1)", "setting": "[4]", "value": "did not activate"}, {"measurement": "activation of bacterially-expressed AMPKα1β1γ1 complexes", "setting": "[5]", "value": "activates"}, {"measurement": "activation of α2β1γ1 ΔCBM mutant", "setting": "[6]", "value": "did not activate"}, {"measurement": "activation of AMPK complexes with the β1 S108A mutation", "setting": "[7]", "value": "did not activate"}, {"measurement": "phosphorylation of the AMPK substrate ACC (pACC HTRF)", "setting": "[3]", "value": "increase"}, {"measurement": "rate of lipogenesis (DPM per μg of protein)", "setting": "[8]", "value": "dose-dependent decrease"}, {"measurement": "fold increase in glucose uptake relative to control", "setting": "[9]", "value": "~2", "unit": "fold"}]}
{"smiles": "COc1cc(O)c2c(c1)CCc1ccc(O)cc1-2", "note": "[Compound 5, 7-Methoxy-9,10-dihydrophenanthrene-3,5-diol]", "values": [{"measurement": "activation of bacterially-expressed AMPKα2β1γ1 complexes", "setting": "[2]", "value": "activate"}, {"measurement": "phosphorylation of the AMPK substrate ACC (pACC HTRF)", "setting": "[3]", "value": "increase"}]}
{"smiles": "N#CC(C#N)=NNc1ccc(OC(F)(F)F)cc1", "note": "[FCCP, carbonyl cyanide P-(trifluoromethoxy) phenylhydrazone]", "values": [{"measurement": "cell viability (MTT, percentage of viable cells)", "setting": "[10]", "value": "robust decrease in cell viability"}]}
{"smiles": "CC[C@H]1/C=C/C=C/C[C@@H](C)[C@H](O)[C@@](C)(O)C(=O)[C@@H](C)[C@H](O)[C@@H](C)C(=O)[C@@H](C)[C@H](O)[C@@H](C)/C=C/C(=O)O[C@@H]2[C@H](C)[C@H](CC1)O[C@]1(CC[C@H](C)[C@H](C[C@@H](C)O)O1)[C@H]2C", "note": "[Oligomycin]", "values": [{"measurement": "cell viability (MTT, percentage of viable cells)", "setting": "[10]", "value": "robust decrease in cell viability"}]}
